Results reported in patent US20110183978A1, “Phenylpyri(mi)dinylazoles” (Bayer CropScience AG, priority 2009, published 2011).
Read-outs that look alike come from different tables or passages of the source.

Legend:
[1] = physchem
[2] = test system: Alternaria solani; assay: Example M: in vivo test on Alternaria solani (leaf blotch disease/tomato/protective); details: 168 h, tomato, protective, 500 ppm active substance, assessed 7 days after inoculation, read-out: % Wirkungsgrad (activity level)
Procedure: Solvent: 49 parts by weight N,N-dimethylformamide Emulsifier: 1 part by weight alkylaryl polyglycol ethers For the preparation of a suitable active substance preparation, 1 part by weight of active substance is mixed with the stated quantities of solvent and emulsifier and the concentrate is diluted to the desired concentration with water. For the testing for protective activity, young tomato plants are sprayed with the active substance preparation at the stated application dosage. […] 7 days after the inoculation, the assessment takes place.

[3] = test system: Sphaerotheca fuliginea; assay: Example L: in vivo test on Sphaerotheca fuliginea (powdery mildew on cucumber/protective); details: Podosphaera fuliginea, 168 h, cucumber, protective, assessment 7 days after inoculation, read-out: % Wirkungsgrad
Procedure: Solvent: 49 parts by weight N,N-dimethylformamide Emulsifier: 1 part by weight alkylaryl polyglycol ethers For the preparation of a suitable active substance preparation, 1 part by weight of active substance is mixed with the stated quantities of solvent and emulsifier and the concentrate is diluted to the desired concentration with water. For the testing for protective activity, young cucumber plants are sprayed with the active substance preparation at the stated application dosage. One day after the treatment, the plants are inoculated with a spore suspension of Sphaerotheca fuliginea. Next, the plants are placed in a greenhouse at 70% relative atmospheric humidity and a temperature of 23° C. 7 days after the inoculation, the assessment takes place.

[4] = test system: Fusarium graminearum; assay: microbe, parasite or virus in culture; type: cell-based
[5] = 72 h, read-out: % Inhibition des Pilzwachstums bei 50 μM
[6] = 168 h, read-out: % Inhibition der DON/AcDON produktion bei 50 μM
[7] = LogPA (logP of the stated pure compound or, in a mixture, of the main isomer, 1-substituted 3-aryl-1H-pyrazole)

Row | SMILES | chromatographic logP ([1]; LogPA) | pest or weed control at 500 ppm [2] [%] | pest or weed control at 500 ppm [3] [%] | inhibition at 50 µM [4, 5] [%] | inhibition at 50 µM [4, 6] [%] | chromatographic logP [1, 7]
1 | Cc1c(-c2ccncc2)c(-c2ccc(F)cc2)nn1CC(F)F [Compound 367] | 1.49 | 95 | 84 |  |  | 
2 | O=C(CC1CC1)Nc1cc(-c2cn(C3CC3)nc2-c2ccc(F)cc2)ccn1 [Compound 323] | 2.48 | 95 | 86 |  |  | 
3 | CCn1cc(-c2ccnc(NC(=O)CC3CC3)c2)c(-c2ccc(F)cc2)n1 [Compound 291] | 2.29 | 100 | 95 |  |  | 
4 | CC(c1ccccc1F)n1cc(-c2ccnc(NC(=O)CC3CC3)c2)c(-c2ccc(F)cc2)n1 (centres unmarked) [Compound 250] | 3.54 | 94 | 84 |  |  | 
5 | CCn1cc(-c2ccnc(NC(C)=O)c2)c(-c2ccc(F)cc2)n1 [Compound 342] | 1.57 | 95 | 94 |  |  | 
6 | CCC(=O)Nc1cc(-c2cn(CCC#N)nc2-c2ccc(F)cc2)ccn1 [Compound 303] | 1.63 | 100 | 95 |  |  | 
7 | CC(C)C(=O)Nc1cc(-c2c(-c3ccc(F)cc3O)nn(C)c2OC(F)F)ccn1 [Compound 257] | 2.44 | 94 |  | 0 | 94 | 
8 | CC(C)C(=O)Nc1cc(-c2cn(C3CC3)nc2-c2ccc(F)cc2)ccn1 [Compound 322] | 2.32 | 95 | 95 |  |  | 
9 | Cc1cn(-c2cc(-c3cn(C(C)C)nc3-c3ccc(F)cc3)ccn2)cn1 [Compound 283] | 2.05 | 95 | 78 |  |  | 
10 | CCCn1cc(-c2ccnc(NC(=O)CC)c2)c(-c2ccc(F)cc2)n1 [Compound 292] | 2.15 | 100 | 95 |  |  | 
11 | CC(=O)Nc1cc(-c2cn(C)nc2-c2ccc(F)cc2)ccn1 [Compound 350] | 1.32 | 95 | 94 |  |  | 
12 | CCn1cc(-c2ccnc(NC(=O)CC3CCCC3)c2)c(-c2ccc(F)cc2)n1 [Compound 338] | 3.87 | 80 | 91 |  |  | 
13 | CCn1cc(-c2ccnc(NC(=O)C(C)C)c2)c(-c2ccc(F)cc2)n1 [Compound 290] | 2.14 | 100 | 100 |  |  | 
14 | CCC(=O)Nc1cc(-c2cn(C3CC3)nc2-c2ccc(F)cc2)ccn1 [Compound 320] | 1.97 | 95 | 94 |  |  | 
15 | COCC(=O)Nc1cc(-c2cn(Cc3ccccc3F)nc2-c2ccc(F)cc2)ccn1 [Compound 247] | 3.09 | 94 |  | 96 | 99 | 
16 | CCCn1cc(-c2ccnc(NC(=O)COC)c2)c(-c2ccc(F)cc2)n1 [Compound 293] | 2.58 | 100 | 94 |  |  | 
17 | CCC(=O)Nc1cc(-c2c(-c3ccc(F)cc3)nn(C)c2OC(F)F)ccn1 [Compound 316] | 2.33 | 100 | 75 |  |  | 
18 | CCn1cc(-c2ccnc(NC(=O)c3snnc3C)c2)c(-c2ccc(F)cc2)n1 [Compound 335] | 2.72 |  | 74 |  |  | 
19 | CCn1cc(-c2ccnc(NC(=O)C3CC3C)c2)c(-c2ccc(F)cc2)n1 (centres unmarked) [Compound 341] | 2.16 | 95 | 100 |  |  | 
20 | CC(C)n1cc(-c2ccnc3[nH]cnc23)c(-c2ccc(F)cc2)n1 [Compound 280] | 1.82 | 95 | 93 |  |  | 
21 | CCn1cc(-c2ccnc(NC(=O)[C@H](C)O)c2)c(-c2ccc(F)cc2)n1 [Compound 352] | 1.83 | 95 | 73 |  |  | 
22 | CC(C)Cn1cc(-c2ccnc(NC3COC3)n2)c(-c2ccc(F)cc2)n1 [Compound 279] | 2.35 | 70 | 100 |  |  | 
23 | CC(C)C(=O)Nc1cc(-c2cn(C(C)CC#N)nc2-c2ccc(F)cc2)ccn1 (centres unmarked) [Compound 314] | 1.29 | 100 | 100 |  |  | 

Row | SMILES | chromatographic logP ([1]; LogPA) | pest or weed control at 500 ppm [2] [%] | pest or weed control at 500 ppm [3] [%] | inhibition at 50 µM [4, 5] [%] | inhibition at 50 µM [4, 6] [%] | chromatographic logP [1, 7]
24 | CCC(C)Nc1nccc(-c2cn(CC(C)C)nc2-c2ccc(F)cc2)n1 (centres unmarked) [Compound 286] | 2.68 | 90 | 89 |  |  | 
25 | CC(C)Cn1cc(-c2ccncc2-c2ccc(F)cc2)c(-c2ccc(F)cc2)n1 [Compound 228] | 2.96 | 70 | 75 |  |  | 
26 | CC(C)Nc1nccc(-c2cn(C(C)C)nc2-c2ccc(F)cc2)n1 [Compound 371] | 2.92 | 95 | 94 |  |  | 
27 | CCC(=O)Nc1cc(-c2cn(C(C(=O)OC)C(C)C)nc2-c2ccc(F)cc2)ccn1 (centres unmarked) [Compound 274] | 2.67 | 95 | 94 |  |  | 
28 | CC(C)Cn1cc(-c2ccnc(NC3CC3)n2)c(-c2ccc(F)cc2)n1 [Compound 281] | 2.41 | 95 | 94 |  |  | 
29 | COCC(=O)Nc1cc(-c2cn(C(C)CC#N)nc2-c2ccc(F)cc2)ccn1 (centres unmarked) [Compound 313] | 2.17 | 95 | 98 |  |  | 
30 | Cc1c(-c2ccncc2)c(-c2ccc(F)cc2)nn1CC(C)C [Compound 368] | 2.07 | 95 | 94 |  |  | 
31 | CC(C)C(=O)Nc1cc(-c2cn(Cc3ccccc3F)nc2-c2ccc(F)cc2)ccn1 [Compound 256] | 3.03 | 94 | 92 |  |  | 
32 | Cn1cc(-c2ccnc(NC(=O)C3CCC3)c2)c(-c2ccc(F)cc2)n1 [Compound 349] | 1.93 | 80 | 95 |  |  | 
33 | CCn1cc(-c2ccnc(NC(=O)CCCC(=O)OC)c2)c(-c2ccc(F)cc2)n1 [Compound 331] | 2.02 |  | 94 |  |  | 
34 | CCn1cc(-c2ccnc(NC(=O)CC(C)C)c2)c(-c2ccc(F)cc2)n1 [Compound 339] | 3.47 | 95 | 95 |  |  | 
35 | CC(C)C(=O)Nc1cc(-c2cn(CC3OCCO3)nc2-c2ccc(F)cc2)ccn1 [Compound 276] | 1.99 | 95 | 99 |  |  | 
36 | CCCn1cc(-c2ccnc(NC(=O)CC3CC3)c2)c(-c2ccc(F)cc2)n1 [Compound 295] | 2.66 | 100 | 94 |  |  | 
37 | CC(C)Cn1cc(-c2ccnc(NC(=O)CC3CC3)c2)c(-c2ccc(F)cc2)n1 [Compound 158] |  | 94 | 97 |  |  | 3.03
38 | CC(C)n1cc(-c2ccnc(NCc3ccccc3)n2)c(-c2ccc(F)cc2)n1 [Compound 369] | 3.31 | 90 | 88 |  |  | 
39 | CC(C)C(=O)Nc1cc(-c2cn(C)nc2-c2ccc(F)cc2)ccn1 [Compound 298] | 1.83 | 80 | 100 |  |  | 
40 | Cn1cc(-c2ccnc(NC(=O)c3ccccc3)c2)c(-c2ccc(F)cc2)n1 [Compound 346] | 2.42 |  | 95 |  |  | 
41 | O=C1OCCC1n1cc(-c2ccncc2)c(-c2ccc(F)cc2)n1 (centres unmarked) [Compound 142] |  | 94 |  | 0 | 89 | 0.95
42 | CC(C)On1cc(-c2ccncc2)c(-c2ccc(F)cc2)n1 [Compound 227] | 1.58 | 95 |  | 100 | 100 | 
43 | O=C(Nc1cc(-c2cn(Cc3ccccc3F)nc2-c2ccc(F)cc2)ccn1)C1CC1 [Compound 262] | 2.77 | 95 |  | 35 | 99 | 
44 | CCOCCn1cc(-c2ccnc(NC(=O)COC)c2)c(-c2ccc(F)cc2)n1 [Compound 327] | 2.38 | 95 |  | 105 | 100 | 
45 | CC(C)Cn1cc(-c2ccncc2)c(-c2ccc(F)c(C#N)c2)n1 [Compound 154] |  |  |  | 0 | 93 | 1.65
46 | Cc1cc(-c2cn(C3CCCCO3)nc2-c2ccc(F)cc2)ccn1 (centres unmarked) [Compound 31] |  |  | 70 |  |  | 1.38
